Test results published in patent US6914045B2, “Glycopeptide antibiotics” (Wyeth Holdings Corporation, priority 2001, dated 2005).
≈ marks a conversion by molar mass, not a printed value.

Legend:
Test in all cases: in vitro antibacterial evaluation, MIC by broth dilution
Assay type in all cases: cell-based
[1] = system: Enterococcus sp.; conditions: broth dilution, 18 hours at 35° C.
Outline: (§1)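 Step 1: dilute antibiotic across 64-0.06 μg/mL in Muller-Hinton II […]. Step 2: inoculate at 5×10^5 CFU/mL.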

[2] = system: Escherichia coli; conditions: 18 hours at 35° C.
Outline: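 Read-out: the lowest concentration at which the test strain fails to grow. Serial dilutions (64-0.06 μg/mL) in Muller-Hinton II […], 5×10^5 CFU/mL inoculum, NCCLS M7-A2 procedure.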

[3] = system: Staphylococcus sp.; conditions: broth dilution, 18 hours at 35° C.
Outline: as §1

[4] = system: Streptococcus sp.; conditions: broth dilution, 18 hours at 35° C.
Outline: as §1

MIC Enterococcus avium (GC 4558) ([1]; Enterococcus avium (GC 4558)): 32 µg/mL (≈ 23.2 µM) | MIC Enterococcus faecalis (ATCC 29212) ([1]; Enterococcus faecalis (ATCC 29212)): 32 µg/mL (≈ 23.2 µM) | MIC Enterococcus faecalis (GC 4553) ([1]; Enterococcus faecalis (GC 4553)): 32 µg/mL (≈ 23.2 µM) | MIC Enterococcus faecalis (GC 4554) ([1]; Enterococcus faecalis (GC 4554)): 32 µg/mL (≈ 23.2 µM) | MIC Enterococcus faecalis (GC 6189) ([1]; Enterococcus faecalis (GC 6189)): 32 µg/mL (≈ 23.2 µM) | MIC Enterococcus faecium (GC 2243) ([1]; Enterococcus faecium (GC 2243)): 32 µg/mL (≈ 23.2 µM) | MIC Enterococcus faecium (GC 4556) ([1]; Enterococcus faecium (GC 4556)): 32 µg/mL (≈ 23.2 µM) | MIC Enterococcus faecium (GC 4557) ([1]; Enterococcus faecium (GC 4557)): 8 µg/mL (≈ 5.8 µM) | MIC Enterococcus faecalis (ATCC 29212) ([1]; strain ATCC 29212): 32 µg/mL (≈ 23.2 µM) | MIC Enterococcus faecalis (GC 2242) ([1]; strain GC 2242): 16 µg/mL (≈ 11.6 µM) | MIC Enterococcus faecium (GC 2243) ([1]; strain GC 2243): 32 µg/mL (≈ 23.2 µM) | MIC Enterococcus faecalis (GC 2691) ([1]; strain GC 2691): 32 µg/mL (≈ 23.2 µM) | MIC Enterococcus faecalis (GC 3059) ([1]; strain GC 3059): 32 µg/mL (≈ 23.2 µM) | MIC Enterococcus faecalis (GC 4552) ([1]; strain GC 4552): 32 µg/mL (≈ 23.2 µM) | MIC Enterococcus faecalis (GC 4553) ([1]; strain GC 4553): 32 µg/mL (≈ 23.2 µM) | MIC Enterococcus faecalis (GC 4554) ([1]; strain GC 4554): 32 µg/mL (≈ 23.2 µM) | MIC Enterococcus faecium (GC 4556) ([1]; strain GC 4556): 32 µg/mL (≈ 23.2 µM) | MIC Enterococcus faecium (GC 4557) ([1]; strain GC 4557): 8 µg/mL (≈ 5.8 µM) | MIC Enterococcus avium (GC 4558) ([1]; strain GC 4558): 32 µg/mL (≈ 23.2 µM) | MIC Enterococcus faecalis (GC 6189) ([1]; strain GC 6189): 32 µg/mL (≈ 23.2 µM) | MIC Escherichia coli (ATCC 25922) ([2]; Escherichia coli (ATCC 25922)): >64 µg/mL | MIC Escherichia coli (GC 4559) ([2]; Escherichia coli (GC 4559)): >64 µg/mL | MIC Escherichia coli (GC 4560) ([2]; Escherichia coli (GC 4560)): 2 µg/mL (≈ 1.45 µM) | MIC Coagulase Negative Staphylococcus (GC 4547) [3]: 4 µg/mL (≈ 2.9 µM) | MIC Coagulase Negative Staphylococcus (GC 4548) [3]: 2 µg/mL (≈ 1.45 µM) | MIC Coagulase Negative Staphylococcus (GC 4549) [3]: 2 µg/mL (≈ 1.45 µM) | MIC Coagulase Negative Staphylococcus (GC 4551) [3]: 8 µg/mL (≈ 5.8 µM) | MIC Coagulase Negative Staphylococcus (GC 6257) [3]: 2 µg/mL (≈ 1.45 µM) | MIC Staphylococcus aureus (ATCC 29213) [3]: 4 µg/mL (≈ 2.9 µM) | MIC Staphylococcus aureus (GC 1131) [3]: 8 µg/mL (≈ 5.8 µM) | MIC Staphylococcus aureus (GC 3051) [3]: 2 µg/mL (≈ 1.45 µM) | MIC Staphylococcus aureus (GC 3053) [3]: 8 µg/mL (≈ 5.8 µM) | MIC Staphylococcus aureus (GC 4541) [3]: 4 µg/mL (≈ 2.9 µM) | MIC Staphylococcus aureus (GC 4542) [3]: 4 µg/mL (≈ 2.9 µM) | MIC Staphylococcus aureus (GC 4544) [3]: 4 µg/mL (≈ 2.9 µM) | MIC Staphylococcus aureus (GC 4545) [3]: 4 µg/mL (≈ 2.9 µM) | MIC Staphylococcus aureus-SMITH (GC 4543) [3]: 4 µg/mL (≈ 2.9 µM) | MIC Staphylococcus aureus (ATCC 29213) ([3]; strain ATCC 29213): 4 µg/mL (≈ 2.9 µM) | MIC Staphylococcus aureus (GC 1131) ([3]; strain GC 1131): 8 µg/mL (≈ 5.8 µM) | MIC Staphylococcus aureus (GC 3051) ([3]; strain GC 3051): 2 µg/mL (≈ 1.45 µM) | MIC Staphylococcus aureus (GC 3053) ([3]; strain GC 3053): 8 µg/mL (≈ 5.8 µM) | MIC Staphylococcus aureus (GC 4541) ([3]; strain GC 4541): 4 µg/mL (≈ 2.9 µM) | MIC Staphylococcus aureus (GC 4542) ([3]; strain GC 4542): 4 µg/mL (≈ 2.9 µM) | MIC Staphylococcus aureus (GC 4544) ([3]; strain GC 4544): 4 µg/mL (≈ 2.9 µM) | MIC Staphylococcus aureus (GC 4545) ([3]; strain GC 4545): 4 µg/mL (≈ 2.9 µM) | MIC Coagulase Negative Staphylococcus (GC 4547) ([3]; strain GC 4547): 4 µg/mL (≈ 2.9 µM) | MIC Coagulase Negative Staphylococcus (GC 4548) ([3]; strain GC 4548): 2 µg/mL (≈ 1.45 µM) | MIC Coagulase Negative Staphylococcus (GC 4549) ([3]; strain GC 4549): 2 µg/mL (≈ 1.45 µM) | MIC Coagulase Negative Staphylococcus (GC 4551) ([3]; strain GC 4551): 8 µg/mL (≈ 5.8 µM) | MIC Coagulase Negative Staphylococcus (GC 6257) ([3]; strain GC 6257): 2 µg/mL (≈ 1.45 µM) | MIC Staphylococcus aureus-SMITH (GC 4543) ([3]; strain SMITH GC 4543): 4 µg/mL (≈ 2.9 µM) | MIC Streptococcus pneumoniae (ATCC 6301) ([4]; strain ATCC 6301): 1 µg/mL (≈ 0.725 µM) | MIC Streptococcus pneumoniae (GC 1894) ([4]; strain GC 1894): 0.5 µg/mL (≈ 0.362 µM) | MIC Streptococcus pyogenes (GC 4563) ([4]; strain GC 4563): 1 µg/mL (≈ 0.725 µM) | MIC Streptococcus agalactiae (GC 4564) ([4]; strain GC 4564): 2 µg/mL (≈ 1.45 µM) | MIC Streptococcus pneumoniae (GC 4565) ([4]; strain GC 4565): 1 µg/mL (≈ 0.725 µM)
SMILES: CCC(C)C(=O)OC1C(CO)OC(OC2C(CO)OC(Oc3ccc(CC4NC(=O)C(C(C)c5ccccc5)NC(=O)CNC(=O)C(CO)NC(=O)C(C(O)C5CNC(=N)N5C5OC(CO)C(O)C(O)C5O)NC(=O)C(C(O)C5CNC(=N)N5)NC4=O)cc3)C(O)C2O)C(O)C1O (stereo not drawn) [Example 278c, Cyclo[glycyl-β-methylphenylalanyl-O-[4-O-[4-O-(2-methylbutanoyl)hexopyranosyl]hexopyranosyl]tyrosyl-3-(2-iminoimidazolidin-4-yl)seryl-3-(3-hexopyranosyl-2-iminoimidazolidin-4-yl)serylseryl]]
MIC Staphylococcus haemolyticus (GC 4546) [3]: 2 µg/mL (≈ 1.45 µM) | MIC Staphylococcus haemolyticus (GC 4546) ([3]; strain GC 4546): 2 µg/mL (≈ 1.45 µM)
